Reference: patent US20240109873A1, “ANTAGONISTS OF THE MUSCARINIC ACETYLCHOLINE RECEPTOR M4” (Vanderbilt University, priority 2020, published 2024)

Legend:
mice = experiment: haloperidol-induced catalepsy, a model of parkinsonian motor disability; assay type: in vivo
Excerpt: Furthermore, haloperidol-induced catalepsy, a model of parkinsonian motor disability, is reduced in M4 knockout mice as compared to wild-type controls. […] The reversal by scopolamine was uncommonly robust and more pronounced than we observe with agents targeting a number of other targets being evaluated for potential antiparkinsonian effects, including metabotropic glutamate (mGlu) receptors mGlu4 or mGlu5, A2A adenosine receptors, and NMDA receptors. […] Taken together with the extensive studies of M4 modulation of basal ganglia and motor function, these studies provide compelling evidence that M4 is the dominant mAChR subtype involved in the antiparkinsonian effects of non-selective mAChR antagonists and provide support for discovery and development of selective M4 antagonists for treatment of neurodegenerative disease such as PD, dystonia, tardive dyskinesia and other movement disorders.

human mAChR M4 = target: T1, human mAChR M4 (Homo sapiens, UniProt P08173); experiment: mAChR M4 cell-based functional assay (calcium flux, antagonism of EC80 acetylcholine response, M4/Gqi5/CHO-K1 cells); details: for remaining activity at 30 µM: CHO-K1, % ACh maximum at 30 μM, read-out: Human M4 Emin; for IC50: decrease of the response elicited by an EC80 concentration of acetylcholine, CHO-K1 cells, Gqi5
T1 construct: expressed in transfected cells; host or cells: CHO-K1 (ATCC), co-transfected with chimeric G protein Gqi5
T1 sequence (P08173 1-479): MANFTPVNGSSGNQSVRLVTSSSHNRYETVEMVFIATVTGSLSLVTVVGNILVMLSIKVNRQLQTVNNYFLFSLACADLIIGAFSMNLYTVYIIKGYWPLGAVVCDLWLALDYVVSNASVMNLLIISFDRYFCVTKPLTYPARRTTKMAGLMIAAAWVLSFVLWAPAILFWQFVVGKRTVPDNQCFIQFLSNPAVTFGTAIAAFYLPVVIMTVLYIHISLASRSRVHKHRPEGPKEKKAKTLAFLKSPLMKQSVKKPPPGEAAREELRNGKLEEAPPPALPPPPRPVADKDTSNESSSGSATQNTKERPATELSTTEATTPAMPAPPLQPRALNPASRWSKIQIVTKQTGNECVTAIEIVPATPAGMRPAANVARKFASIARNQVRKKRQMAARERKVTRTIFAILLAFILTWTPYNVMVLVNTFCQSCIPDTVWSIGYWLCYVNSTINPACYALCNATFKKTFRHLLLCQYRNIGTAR
How it was run: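 CHO-K1 cells stably expressing human M4 with chimeric Gqi5, loaded with Fluo-4 AM; calcium flux read on FDSS. Compounds (10-point, 1:3 curves) added first, then EC20 acetylcholine at 143 s and EC80 at 268 s. IC50 from decrease of EC80 acetylcholine response, four-parameter logistic fit.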

Row | Compound | remaining activity at 30 µM (human mAChR M4) | IC50 (human mAChR M4) | reduction of catalepsy induced by haloperidol (mice; M4 KO mice) | reversal of catalepsy induced by haloperidol (mice; WT mice)
1 | CN1[C@@H]2C[C@@H](OC(=O)[C@H](CO)c3ccccc3)C[C@H]1[C@@H]1O[C@@H]12 [scopolamine] | – | – | ineffective in reducing catalepsy | completely reversed
2 | [2H]C([2H])(C1CCOCC1)N1C[C@@H]2C[C@@H](Nc3ccc(-c4cccnc4C(F)(F)F)nn3)C[C@]2(C)C1 (racemic) [Compound 56, (3aR,5S,6aS)-3a-methyl-2-((tetrahydro-2H-pyran-4-yl)methyl-d2)-N-(6-(2-(trifluoromethyl)pyridin-3-yl)pyridazin-3-yl)octahydrocyclopenta[c]pyrrol-5-amine and (3aS,5R,6aR)-3a-methyl-2-((tetrahydro-2H-pyran-4-yl)methyl-d2)-N-(6-(2-(trifluoromethyl)pyridin-3-yl)pyridazin-3-yl)octahydrocyclopenta[c]pyrrol-5-amine] | 2% | 1.9 nM | – | –
3 | [2H]C([2H])([C@H]1COCCO1)N1C[C@H]2C[C@H](Nc3ccc(-c4cccnc4C(F)(F)F)nn3)C[C@H]2C1 [Compound 51, (3aR,5s,6aS)-2-(((S)-1,4-dioxan-2-yl)methyl-d2)-N-(6-(2-(trifluoromethyl)pyridin-3-yl)pyridazin-3-yl)octahydrocyclopenta[c]pyrrol-5-amine] | 2% | 1.4 nM | – | –
4 | [2H]C([2H])(C1CCCCC1)N1C[C@H]2C[C@H](Nc3ccc(-c4cnccc4C(F)(F)F)nn3)C[C@H]2C1 [Compound 10, (3aR,5s,6aS)-2-(cyclohexylmethyl-d2)-N-(6-(4-(trifluoromethyl)pyridin-3-yl)pyridazin-3-yl)octahydrocyclopenta[c]pyrrol-5-amine] | 3% | 0.56 nM | – | –
5 | [2H]C1([2H])CC(CN2C[C@H]3C[C@H](Nc4nnc(-c5cnccc5C(F)(F)F)cc4C)C[C@H]3C2)CC([2H])([2H])O1 [Compound 19, (3aR,5s,6aS)-N-(4-methyl-6-(4-(trifluoromethyl)pyridin-3-yl)pyridazin-3-yl)-2-((tetrahydro-2H-pyran-4-yl-2,2,6,6-d4)methyl)octahydrocyclopenta[c]pyrrol-5-amine] | 3% | 1.3 nM | – | –
6 | [2H]C([2H])([C@@H]1CCCOC1)N1C[C@H]2C[C@H](Nc3ccc(-c4cnccc4C(F)(F)F)nn3)C[C@H]2C1 [Compound 24, (3aR,5s,6aS)-2-(((S)-tetrahydro-2H-pyran-3-yl)methyl-d2)-N-(6-(4-(trifluoromethyl)pyridin-3-yl)pyridazin-3-yl)octahydrocyclopenta[c]pyrrol-5-amine] | 3% | 5.5 nM | – | –
7 | [2H]C([2H])([C@H]1CCCCO1)N1C[C@H]2C[C@H](Nc3ccc(-c4cnccc4C(F)(F)F)nn3)C[C@H]2C1 [Compound 7, (3aR,5s,6aS)-2-(((R)-tetrahydro-2H-pyran-2-yl)methyl-d2)-N-(6-(4-(trifluoromethyl)pyridin-3-yl)pyridazin-3-yl)octahydrocyclopenta[c]pyrrol-5-amine] | 2% | 0.13 nM | – | –
8 | [2H]C1([2H])CC(C([2H])([2H])N2C[C@H]3C[C@H](Nc4ccc(-c5cnccc5C(F)(F)F)nn4)C[C@H]3C2)CC([2H])([2H])O1 [Compound 12, (3aR,5s,6aS)-2-((tetrahydro-2H-pyran-4-yl-2,2,6,6-d4)methyl-d2)-N-(6-(4-(trifluoromethyl)pyridin-3-yl)pyridazin-3-yl)octahydrocyclopenta[c]pyrrol-5-amine] | 2% | 0.77 nM | – | –
9 | [2H]C([2H])(N1C[C@H]2C[C@H](Nc3ccc(-c4cccnc4C(F)(F)F)nn3)C[C@H]2C1)C12COC(C)(C1)C2 [Compound 55, (3aR,5s,6aS)-2-((1-methyl-2-oxabicyclo[2.1.1]hexan-4-yl)methyl-d2)-N-(6-(2-(trifluoromethyl)pyridin-3-yl)pyridazin-3-yl)octahydrocyclopenta[c]pyrrol-5-amine] | 3% | 5.5 nM | – | –

The remaining compounds from weak to strong by IC50 (human mAChR M4), led by results:

Row | remaining activity at 30 µM (human mAChR M4) | IC50 (human mAChR M4) | Compound | reduction of catalepsy induced by haloperidol (mice; M4 KO mice) | reversal of catalepsy induced by haloperidol (mice; WT mice)
10 | 4% | 2.7 nM | [2H]C([2H])(C1CCCOCC1)N1C[C@H]2C[C@H](Nc3ccc(-c4cnccc4C(F)(F)F)nn3)C[C@H]2C1 (stereo partly drawn) [Compound 28, (3aR,5s,6aS)-2-(oxepan-4-ylmethyl-d2)-N-(6-(4-(trifluoromethyl)pyridin-3-yl)pyridazin-3-yl)octahydrocyclopenta[c]pyrrol-5-amine] | – | –
11 | 4% | 1.5 nM | [2H]C([2H])(C1CCOCC1)N1C[C@H]2C[C@H](Nc3nnc(-c4cnccc4C(F)(F)F)cc3C)C[C@H]2C1 [Compound 16, (3aR,5s,6aS)-N-(4-methyl-6-(4-(trifluoromethyl)pyridin-3-yl)pyridazin-3-yl)-2-((tetrahydro-2H-pyran-4-yl)methyl-d2)octahydrocyclopenta[c]pyrrol-5-amine] | – | –
12 | 4% | 1.4 nM | [2H]C([2H])(C1CCOC2(CCC2)C1)N1C[C@H]2C[C@H](Nc3ccc(-c4cccnc4C(F)(F)F)nn3)C[C@H]2C1 (stereo partly drawn) [Compound 60, (3aR,5s,6aS)-2-((5-oxaspiro[3.5]nonan-8-yl)methyl-d2)-N-(6-(2-(trifluoromethyl)pyridin-3-yl)pyridazin-3-yl)octahydrocyclopenta[c]pyrrol-5-amine] | – | –
13 | 2% | 0.91 nM | [2H]C([2H])([C@H]1COCCO1)N1C[C@H]2C[C@H](Nc3ccc(-c4cnccc4C(F)(F)F)nn3)C[C@H]2C1 [Compound 5, (3aR,5s,6aS)-2-(((S)-1,4-dioxan-2-yl)methyl-d2)-N-(6-(4-(trifluoromethyl)pyridin-3-yl)pyridazin-3-yl)octahydrocyclopenta[c]pyrrol-5-amine] | – | –
14 | 2% | 0.86 nM | [2H]C([2H])(N1C[C@H]2C[C@H](Nc3ccc(-c4cnccc4C(F)(F)F)nn3)C[C@H]2C1)C1(F)CCOCC1 [Compound 11, (3aR,5s,6aS)-2-((4-fluorotetrahydro-2H-pyran-4-yl)methyl-d2)-N-(6-(4-(trifluoromethyl)pyridin-3-yl)pyridazin-3-yl)octahydrocyclopenta[c]pyrrol-5-amine] | – | –
15 | 5% | 0.8 nM | [2H]C([2H])(CC1CCOCC1)N1C[C@H]2C[C@H](Nc3ccc(-c4cnccc4C(F)(F)F)nn3)C[C@H]2C1 [Compound 31, (3aR,5s,6aS)-2-(2-(tetrahydro-2H-pyran-4-yl)ethyl-1,1-d2)-N-(6-(4-(trifluoromethyl)pyridin-3-yl)pyridazin-3-yl)octahydrocyclopenta[c]pyrrol-5-amine] | – | –
16 | 4% | 0.52 nM | [2H]C([2H])(C1CCOCC1)N1C[C@H]2C[C@H](Nc3nnc(-c4cnccc4C(F)(F)F)c4ccsc34)C[C@H]2C1 [Compound 35, N-((3aR,5s,6aS)-2-((tetrahydro-2H-pyran-4-yl)methyl-d2)octahydrocyclopenta[c]pyrrol-5-yl)-4-(4-(trifluoromethyl)pyridin-3-yl)thieno[2,3-d]pyridazin-7-amine] | – | –
